Assay [1] deals with T1, AsAChE-A.
T1 construct: gene ace 2; native, soluble, from worker heads
Briefly: LC-MS/MS quantification of choline, HILIC. The class given is biochemical, Atta sexdens. The settings on record: free enzyme; 15 mM ammonium acetate, pH 5.0 as printed; 5 min. The text has this: LC-MS/MS quantification of choline, HILIC on AsAChE-A

The subject of assay [2] is T1, AsAChE-A. Briefly: Ellman assay, […] nm, Lineweaver-Burk. It counts as biochemical, Atta sexdens. The settings on record: free enzyme; Tris-HCl, optimal pH (9.5) and temperature (30 or 50 °C, which not told); iodide salt; partially purified native enzyme. Background: In Ellman's method for cholinesterases, released thiocholine reacts with DTNB.
In assay [3] the target is T2, AsAChE-B (Atta sexdens, UniProt A0A2R2V0F5).
T2 construct: native, soluble, from worker heads
Briefly: on-flow LC-MS/MS of choline with immobilized enzyme capillary reactor. The class given is biochemical. The settings on record: read-out: % inhibition at 0.1 mM.

Broadly, the Km is the concentration of substrate that gives half-maximal velocity. On to `CC(=O)OCC[N+](C)(C)C` [ACh, acetylcholine], for which the Km in assay [1] was 40.7 ± 12.5 µM.

For the compound `CC(=O)SCC[N+](C)(C)C` [ATCh, acetylthiocholine], the Km in assay [2] was 39.1 ± 2.3 µM.

A word on the inhibition: it is how much of the control response was suppressed. Regarding `Nc1c2c(nc3ccccc13)CCCC2` [tacrine], the inhibition at 100 µM in assay [3] was determined as 16%.

(Values after PMC6633970, “Acetylcholinesterases from Leaf-Cutting ant Atta sexdens: Purification, Characterization, and Capillary Reactors for On-Flow Assays” (Enzyme Research, 2019).)
